Measured values as given in ChEMBL document CHEMBL3879901, “Substituted isoquinolin-1(2H)-ones, and methods of use thereof” (2012).

Assays:
[1] = target: Phosphatidylinositol 4,5-bisphosphate 3-kinase catalytic subunit gamma isoform (Homo sapiens, UniProt P48736); experiment: Inhibition of recombinant human C-terminal His6-tagged p110gamma expressed in insect cells using phosphatidylinositol as substrate in presence of gamma-32P-ATP after 5 mins by thin layer chromatographic method
[2] = target: PI3-kinase p110-delta/p85-alpha (Homo sapiens, UniProt O00329); experiment: Inhibition of N-terminal His6-tagged recombinant full-length human p110delta/untagged recombinant full length p85alpha expressed in baculovirus infected Sf21 cells using phosphatidylinositol as substrate in presence of gamma-32P-ATP after 5 mins by thin layer chromatographic method
[3] = target: PI3K p110 beta/p85 alpha (Homo sapiens, UniProt P42338); experiment: Inhibition of N-terminal His6-tagged recombinant full-length human p110beta/untagged recombinant full length p85alpha expressed in baculovirus infected Sf21 cells using phosphatidylinositol as substrate in presence of gamma-32P-ATP after 5 mins by thin layer chromatographic method
[4] = target: PI3-kinase p110-alpha/p85-alpha (Homo sapiens, UniProt P42336); experiment: Inhibition of N-terminal His6-tagged recombinant full-length human p110alpha/untagged recombinant full length human p85alpha expressed in baculovirus infected Sf21 cells using phosphatidylinositol as substrate in presence of gamma-32P-ATP after 5 mins by thin layer chromatographic method
[5] = Antiproliferative activity against Balb/c mouse splenic B cells preincubated for 30 mins followed by LPS or F(ab')2 donkey anti-mouse IgM and recombinant mouse IL4 stimulation measured after 72 hrs by Alamar Blue reduction assay; type: functional, cell-based

Sequence of PI3K p110 beta/p85 alpha (P27986 whole entry): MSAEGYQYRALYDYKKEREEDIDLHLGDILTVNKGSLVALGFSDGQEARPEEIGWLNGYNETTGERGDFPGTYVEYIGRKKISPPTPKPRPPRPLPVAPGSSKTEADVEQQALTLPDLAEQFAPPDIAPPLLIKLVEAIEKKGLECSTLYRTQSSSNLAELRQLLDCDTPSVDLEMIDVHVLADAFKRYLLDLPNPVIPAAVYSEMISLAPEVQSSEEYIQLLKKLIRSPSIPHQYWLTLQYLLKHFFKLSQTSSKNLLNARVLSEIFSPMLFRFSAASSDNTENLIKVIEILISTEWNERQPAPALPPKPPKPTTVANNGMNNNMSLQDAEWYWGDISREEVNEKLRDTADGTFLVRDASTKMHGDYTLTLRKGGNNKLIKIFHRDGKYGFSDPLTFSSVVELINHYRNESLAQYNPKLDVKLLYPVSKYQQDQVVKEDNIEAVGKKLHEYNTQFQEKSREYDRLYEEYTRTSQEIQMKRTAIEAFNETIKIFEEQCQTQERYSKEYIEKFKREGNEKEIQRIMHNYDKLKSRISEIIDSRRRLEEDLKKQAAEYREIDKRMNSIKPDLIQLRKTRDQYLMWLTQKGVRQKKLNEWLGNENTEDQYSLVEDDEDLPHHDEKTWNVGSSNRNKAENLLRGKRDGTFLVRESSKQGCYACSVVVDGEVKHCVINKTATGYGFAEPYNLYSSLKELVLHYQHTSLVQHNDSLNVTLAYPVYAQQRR
Sequence of PI3K p110 beta/p85 alpha (P42338 whole entry): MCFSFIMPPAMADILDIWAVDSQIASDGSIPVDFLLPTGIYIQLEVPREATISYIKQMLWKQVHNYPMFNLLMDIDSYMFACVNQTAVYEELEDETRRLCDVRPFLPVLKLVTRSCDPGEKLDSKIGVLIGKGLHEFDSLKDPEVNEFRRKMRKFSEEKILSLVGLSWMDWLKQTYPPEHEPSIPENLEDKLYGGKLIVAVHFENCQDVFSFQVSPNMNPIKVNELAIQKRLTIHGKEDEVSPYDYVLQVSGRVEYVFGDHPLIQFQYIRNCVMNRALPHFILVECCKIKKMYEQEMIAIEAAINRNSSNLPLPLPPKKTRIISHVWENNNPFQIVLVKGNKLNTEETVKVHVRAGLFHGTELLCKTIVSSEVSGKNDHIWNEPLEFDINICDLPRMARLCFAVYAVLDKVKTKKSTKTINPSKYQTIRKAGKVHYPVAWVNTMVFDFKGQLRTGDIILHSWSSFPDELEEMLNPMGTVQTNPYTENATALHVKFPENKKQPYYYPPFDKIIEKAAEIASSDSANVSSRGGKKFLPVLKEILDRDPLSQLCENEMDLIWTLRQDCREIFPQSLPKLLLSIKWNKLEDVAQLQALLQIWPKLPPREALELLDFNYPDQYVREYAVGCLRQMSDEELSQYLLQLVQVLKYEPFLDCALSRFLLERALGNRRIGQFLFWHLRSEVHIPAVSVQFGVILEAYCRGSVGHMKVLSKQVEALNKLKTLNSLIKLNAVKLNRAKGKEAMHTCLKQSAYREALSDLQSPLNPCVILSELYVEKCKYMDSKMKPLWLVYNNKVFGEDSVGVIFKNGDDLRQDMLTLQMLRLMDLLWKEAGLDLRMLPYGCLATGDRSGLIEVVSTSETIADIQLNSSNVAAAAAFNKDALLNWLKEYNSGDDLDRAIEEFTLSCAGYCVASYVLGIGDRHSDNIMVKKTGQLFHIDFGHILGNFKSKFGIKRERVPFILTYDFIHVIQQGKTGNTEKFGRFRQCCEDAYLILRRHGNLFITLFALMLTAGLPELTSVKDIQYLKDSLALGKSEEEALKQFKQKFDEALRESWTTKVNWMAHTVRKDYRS
Sequence of PI3-kinase p110-alpha/p85-alpha (P27986 whole entry): as the sequence (P27986 whole entry) above
Sequence of PI3-kinase p110-alpha/p85-alpha (P42336 whole entry): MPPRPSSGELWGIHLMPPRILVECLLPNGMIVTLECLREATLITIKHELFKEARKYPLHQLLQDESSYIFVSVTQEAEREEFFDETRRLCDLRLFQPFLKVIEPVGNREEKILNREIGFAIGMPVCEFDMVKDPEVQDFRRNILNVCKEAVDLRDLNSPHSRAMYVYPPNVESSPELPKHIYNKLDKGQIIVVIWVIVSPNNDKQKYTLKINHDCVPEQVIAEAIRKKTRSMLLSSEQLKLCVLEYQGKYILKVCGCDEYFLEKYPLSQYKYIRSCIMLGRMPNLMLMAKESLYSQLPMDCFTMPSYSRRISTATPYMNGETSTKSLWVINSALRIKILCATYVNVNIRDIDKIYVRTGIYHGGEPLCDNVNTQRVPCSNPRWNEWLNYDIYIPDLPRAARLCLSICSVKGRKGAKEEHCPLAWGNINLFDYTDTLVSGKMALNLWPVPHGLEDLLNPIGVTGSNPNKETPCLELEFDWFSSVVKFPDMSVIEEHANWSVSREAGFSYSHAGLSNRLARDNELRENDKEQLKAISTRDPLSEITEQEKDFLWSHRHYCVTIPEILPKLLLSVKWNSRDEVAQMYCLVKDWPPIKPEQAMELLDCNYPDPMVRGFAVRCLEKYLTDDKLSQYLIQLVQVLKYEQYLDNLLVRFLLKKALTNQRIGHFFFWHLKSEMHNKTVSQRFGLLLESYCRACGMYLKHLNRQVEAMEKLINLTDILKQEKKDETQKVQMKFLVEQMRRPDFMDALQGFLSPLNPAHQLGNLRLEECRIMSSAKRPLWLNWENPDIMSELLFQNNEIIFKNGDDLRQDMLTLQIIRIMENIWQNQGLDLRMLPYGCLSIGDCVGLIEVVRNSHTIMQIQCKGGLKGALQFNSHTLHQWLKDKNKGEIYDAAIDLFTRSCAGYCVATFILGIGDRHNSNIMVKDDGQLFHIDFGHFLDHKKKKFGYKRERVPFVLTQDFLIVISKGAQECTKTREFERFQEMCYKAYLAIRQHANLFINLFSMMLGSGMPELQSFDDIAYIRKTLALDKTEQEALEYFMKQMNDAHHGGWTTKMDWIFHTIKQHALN
Sequence of PI3-kinase p110-delta/p85-alpha (P27986 whole entry): as the sequence (P27986 whole entry) above
Sequence of PI3-kinase p110-delta/p85-alpha (O00329 whole entry): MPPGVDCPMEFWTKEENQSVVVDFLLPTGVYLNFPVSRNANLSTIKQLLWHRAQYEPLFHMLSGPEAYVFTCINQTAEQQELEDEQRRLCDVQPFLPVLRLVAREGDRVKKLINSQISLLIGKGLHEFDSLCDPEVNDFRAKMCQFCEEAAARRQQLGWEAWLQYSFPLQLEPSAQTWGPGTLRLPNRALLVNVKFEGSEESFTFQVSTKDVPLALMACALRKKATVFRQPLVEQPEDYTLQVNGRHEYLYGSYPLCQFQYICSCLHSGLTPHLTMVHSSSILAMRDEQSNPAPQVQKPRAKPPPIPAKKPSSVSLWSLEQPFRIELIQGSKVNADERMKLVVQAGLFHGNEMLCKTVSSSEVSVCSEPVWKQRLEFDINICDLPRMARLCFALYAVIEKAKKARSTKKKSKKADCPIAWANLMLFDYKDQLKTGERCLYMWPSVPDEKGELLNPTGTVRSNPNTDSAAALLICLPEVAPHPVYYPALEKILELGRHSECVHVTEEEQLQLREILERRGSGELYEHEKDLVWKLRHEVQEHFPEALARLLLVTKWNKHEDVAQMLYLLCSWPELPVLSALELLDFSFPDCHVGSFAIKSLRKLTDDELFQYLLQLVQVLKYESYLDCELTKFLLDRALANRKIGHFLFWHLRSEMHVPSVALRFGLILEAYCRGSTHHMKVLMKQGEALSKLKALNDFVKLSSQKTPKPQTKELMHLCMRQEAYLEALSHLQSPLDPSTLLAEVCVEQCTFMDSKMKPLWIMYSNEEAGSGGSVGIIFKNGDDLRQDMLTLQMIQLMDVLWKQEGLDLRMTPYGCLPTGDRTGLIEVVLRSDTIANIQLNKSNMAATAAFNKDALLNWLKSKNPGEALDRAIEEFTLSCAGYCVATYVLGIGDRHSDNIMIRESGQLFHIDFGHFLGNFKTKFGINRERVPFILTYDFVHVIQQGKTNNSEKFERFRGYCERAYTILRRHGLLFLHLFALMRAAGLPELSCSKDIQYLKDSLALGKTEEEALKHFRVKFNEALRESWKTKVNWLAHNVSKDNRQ
Sequence of Phosphatidylinositol 4,5-bisphosphate 3-kinase catalytic subunit gamma isoform (P48736 whole entry, canonical isoform): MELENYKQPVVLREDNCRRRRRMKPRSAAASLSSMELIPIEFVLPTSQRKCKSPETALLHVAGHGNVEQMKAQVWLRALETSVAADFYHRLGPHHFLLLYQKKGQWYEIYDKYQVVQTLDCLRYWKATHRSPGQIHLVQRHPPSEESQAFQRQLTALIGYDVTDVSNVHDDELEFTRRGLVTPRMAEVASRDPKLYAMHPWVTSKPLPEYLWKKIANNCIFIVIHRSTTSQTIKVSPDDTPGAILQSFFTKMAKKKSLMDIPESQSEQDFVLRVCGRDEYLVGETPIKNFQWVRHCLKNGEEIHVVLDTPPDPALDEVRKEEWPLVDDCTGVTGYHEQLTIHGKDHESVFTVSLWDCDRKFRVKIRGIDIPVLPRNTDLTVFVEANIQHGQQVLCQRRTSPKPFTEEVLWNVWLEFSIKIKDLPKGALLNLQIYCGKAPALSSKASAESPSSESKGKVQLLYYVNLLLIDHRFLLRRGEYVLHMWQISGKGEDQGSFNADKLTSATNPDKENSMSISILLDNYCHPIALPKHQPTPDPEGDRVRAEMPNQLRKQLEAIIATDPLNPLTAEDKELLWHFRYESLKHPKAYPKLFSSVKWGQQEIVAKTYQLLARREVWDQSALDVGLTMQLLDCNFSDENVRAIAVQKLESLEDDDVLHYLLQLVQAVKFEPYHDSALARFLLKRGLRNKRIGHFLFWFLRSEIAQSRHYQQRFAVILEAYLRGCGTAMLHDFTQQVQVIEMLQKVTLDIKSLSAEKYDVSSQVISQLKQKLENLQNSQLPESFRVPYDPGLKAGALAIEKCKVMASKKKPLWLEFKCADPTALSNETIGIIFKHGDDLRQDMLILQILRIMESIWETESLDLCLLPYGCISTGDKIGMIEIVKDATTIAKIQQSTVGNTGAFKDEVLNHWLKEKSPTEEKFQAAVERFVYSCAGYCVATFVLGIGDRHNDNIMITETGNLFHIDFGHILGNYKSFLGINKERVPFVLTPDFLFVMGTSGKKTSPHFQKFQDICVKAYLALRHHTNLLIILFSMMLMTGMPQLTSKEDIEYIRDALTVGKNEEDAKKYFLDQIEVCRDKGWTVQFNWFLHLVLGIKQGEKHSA

Row | IC50 [1] | IC50 [2] | IC50 [3] | IC50 [4] | Structure (SMILES) | EC50 [5]
1 | < 100 nM | < 100 nM | < 100 nM |  | Cc1cccc2cc([C@H](C)Nc3ncnc4[nH]cc(C(N)=O)c34)n(-c3ccccc3)c(=O)c12 | 
2 | < 1000 nM | < 1000 nM |  | > 10000 nM | Cc1ccccc1-n1c(Cn2nc(-c3ccc(Cl)cc3)c3c(N)ncnc32)cc2cccc(C)c2c1=O | < 10000 nM
3 | < 100 nM | < 100 nM | < 100 nM |  | Cc1cccc2cc([C@H](C)Nc3ncnc4[nH]nc(C#N)c34)n(-c3ccccc3)c(=O)c12 | < 100 nM
4 | < 100 nM | < 100 nM | < 100 nM |  | Cc1cccc2cc([C@H](C)Nc3ncnc4[nH]nc(C(N)=O)c34)n(-c3ccccc3)c(=O)c12 | < 100 nM
5 | < 100 nM | < 100 nM | < 100 nM |  | Cc1cccc2cc([C@H](C)Nc3ncnc4[nH]cc(F)c34)n(C3CC3)c(=O)c12 | < 100 nM
6 | < 100 nM | < 100 nM | < 100 nM |  | CC(=O)Nc1nc2cc(-c3nn(Cc4cc5cccc(C)c5c(=O)n4-c4ccccc4)c4ncnc(N)c34)ccc2o1 | < 100 nM
7 | > 10000 nM | < 1000 nM |  | > 10000 nM | Cc1cccnc1-n1c(Cn2nc(Cl)c3c(N)ncnc32)cc2cccc(C)c2c1=O | < 1000 nM
8 | < 100 nM | < 100 nM | < 100 nM |  | Cc1cccc2cc([C@H](C)Nc3ncnc4[nH]cc(C#N)c34)n(C3CC3)c(=O)c12 | < 100 nM
9 | < 100 nM | < 100 nM |  |  | Cc1ccccc1-n1c(Cn2nc(-c3ccc4nc(N)oc4c3)c3c(N)ncnc32)cc2cccc(C)c2c1=O | < 100 nM
10 | < 100 nM | < 100 nM |  | < 100000 nM | Cc1cccc2cc(Cn3nc(-c4ccc5nc(N)sc5c4)c4c(N)ncnc43)n(-c3ccccc3)c(=O)c12 | < 100 nM
11 | < 100 nM | < 100 nM | < 100 nM |  | C[C@H](Nc1ncnc2[nH]cnc12)c1cc2cccc(Cl)c2c(=O)n1C1CC1 | < 100 nM
12 | < 100 nM | < 100 nM |  |  | Cc1ccccc1-n1c(Cn2nc(-c3ccc4nc(N)[nH]c4c3)c3c(N)ncnc32)cc2cccc(C)c2c1=O | < 100 nM
13 | < 100 nM | < 100 nM |  |  | CC(=O)Nc1nc2cc(-c3nn(Cc4cc5cccc(C)c5c(=O)n4-c4ccccc4C)c4ncnc(N)c34)ccc2o1 | < 100 nM
14 | < 100 nM | < 100 nM |  |  | Cc1cccc2cc(C(C)Nc3ncnc4[nH]cnc34)n(-c3ccc(F)cc3)c(=O)c12 (centres undefined) | < 100 nM
15 | < 100 nM | < 100 nM |  |  | Cc1cccc2cc(Cn3nc(-c4ccc5sc(N)nc5c4)c4c(N)ncnc43)n(-c3ccccc3)c(=O)c12 | < 100 nM
16 | < 10000 nM | < 1000 nM |  | > 10000 nM | Cc1cccnc1-n1c(Cn2nc(Br)c3c(N)ncnc32)cc2cccc(C)c2c1=O | < 100 nM
17 | < 100 nM | < 100 nM | < 100 nM |  | Cc1cccc2cc([C@H](C)Nc3ncnc4[nH]cnc34)n(C3CC3)c(=O)c12 | < 100 nM
18 | < 100 nM | < 100 nM |  |  | CCC(Nc1ncnc2[nH]cnc12)c1cc2cccc(C)c2c(=O)n1-c1ccccc1 (centres undefined) | < 100 nM
19 | < 100 nM | < 100 nM | < 100 nM |  | Cc1cccc2cc([C@H](C)Nc3ncnc4[nH]nc(C(N)=O)c34)n(C3CC3)c(=O)c12 | 
20 | < 1000 nM | < 100 nM |  | > 10000 nM | Cc1ccccc1-n1c(Cn2nc(-c3cccc(O)c3)c3c(N)ncnc32)cc2ccccc2c1=O | < 1000 nM
21 | < 100 nM | < 100 nM | < 100 nM |  | Cc1cccc2cc([C@H](C)Nc3ncnc4[nH]cc(C(N)=O)c34)n(C3CC3)c(=O)c12 | 

Row | IC50 [1] | IC50 [2] | IC50 [3] | IC50 [4] | Structure (SMILES) | EC50 [5]
22 | < 100 nM | < 100 nM |  |  | CC(=O)Nc1nc2ccc(-c3nn(Cc4cc5cccc(C)c5c(=O)n4-c4ccccc4C)c4ncnc(N)c34)cc2[nH]1 | < 100 nM
23 | < 100 nM | < 100 nM |  |  | Cc1cccc2cc(Cn3nc(-c4ccc5oc(N)nc5c4)c4c(N)ncnc43)n(-c3ccccc3)c(=O)c12 | < 100 nM
24 | < 100 nM | < 100 nM |  |  | Cc1cccc2cc([C@H](C)Nc3ncnc4[nH]ccc34)n(-c3ccccc3)c(=O)c12 | < 100 nM
25 | < 100 nM | < 100 nM | < 100 nM |  | Cc1cccc2cc([C@H](C)Nc3ncnc4[nH]cc(C#N)c34)n(-c3ccccc3)c(=O)c12 | 
26 | < 100 nM | < 100 nM | < 100 nM |  | Cc1cccc2cc([C@H](C)Nc3ncnc4[nH]cc(Br)c34)n(C3CC3)c(=O)c12 | 
27 | < 100 nM | < 100 nM |  |  | Cc1cccc2cc(Cn3nc(-c4ccc5oc(N)nc5c4)c4c(N)ncnc43)n(C3CCC3)c(=O)c12 | < 100 nM
28 | < 100 nM | < 100 nM | < 100 nM |  | Cc1cccc2cc([C@H](C)Nc3ncnc4[nH]ccc34)n(C3CC3)c(=O)c12 | 
29 | > 10000 nM | < 10000 nM |  |  | Cc1cccc2cc(Cn3cnc4c(N)ncnc43)n(-c3ccccc3F)c(=O)c12 | < 10000 nM
30 | < 100 nM | < 100 nM |  |  | Cc1ccccc1-n1c(Cn2nc(CF)c3c(N)ncnc32)cc2cccc(C)c2c1=O | < 100 nM
31 | < 100 nM | < 100 nM | < 100 nM |  | Cc1cccc2cc([C@H](C)Nc3ncnc4[nH]cc(F)c34)n(-c3ccccc3)c(=O)c12 | < 100 nM
32 | < 100 nM | < 100 nM |  |  | Cc1cccc2cc(C(C)Nc3ncnc4[nH]cnc34)n(C3CCCC3)c(=O)c12 (centres undefined) | < 100 nM
33 | < 100 nM | < 100 nM |  | < 100000 nM | Cc1cccc2cc(Cn3nc(-c4ccc5oc(N)nc5c4)c4c(N)ncnc43)n(C3CC3)c(=O)c12 | < 100 nM
34 | < 100 nM | < 100 nM |  |  | Cc1cccc2cc([C@H](C)Nc3nc(F)nc4[nH]cnc34)n(-c3ccccc3)c(=O)c12 | < 100 nM
35 | < 1000 nM | < 1000 nM |  | > 10000 nM | COc1ccc(-c2nn(Cc3cc4cccc(C)c4c(=O)n3-c3ccccc3F)c3ncnc(N)c23)cc1OC | < 1000 nM
36 | < 1000 nM | < 100 nM | > 10000 nM |  | Cc1cccc2cc(Cn3nc(I)c4c(N)ncnc43)n(-c3ccccc3Cl)c(=O)c12 | < 1000 nM
37 | < 100 nM | < 100 nM |  |  | Cc1ccccc1-n1c(Cn2nc(-c3ccc4sc(N)nc4c3)c3c(N)ncnc32)cc2cccc(C)c2c1=O | < 100 nM
38 | < 1000 nM | < 100 nM |  |  | Cc1cccc2cc(Cn3nc(I)c4c(N)ncnc43)n(-c3ccccc3F)c(=O)c12 | < 10000 nM
39 | < 100 nM | < 100 nM | < 100 nM |  | Cc1cccc2cc([C@H](C)Nc3ncnc4[nH]cc(Cl)c34)n(-c3ccccc3)c(=O)c12 | 
40 | < 100 nM | < 100 nM |  |  | Cc1cccc2cc(Cn3nc(-c4ccc5nc(N)[nH]c5c4)c4c(N)ncnc43)n(-c3ccccc3)c(=O)c12 | < 100 nM
41 | < 100 nM | < 100 nM | < 100 nM |  | Cc1cccc2cc([C@H](C)Nc3ncnc4[nH]cc(Br)c34)n(-c3ccccc3)c(=O)c12 | < 100 nM
42 | < 1000 nM | < 100 nM | > 10000 nM |  | Cc1ccncc1-n1c(Cn2nc(I)c3c(N)ncnc32)cc2cccc(C)c2c1=O | < 1000 nM
